Results published in patent publication US4606856A, “[Des-1-amino, 8-glycine]calcitonin” (priority 1985, dated 1986).

Key:
[1] = system: serum calcium concentration; test: Biological assay of calcitonin analogs in vivo: reduction of serum calcium concentration, 2×2 parallel line assay; conditions: rats, subcutaneous injection, serum calcium 1 hour later, compared with synthetic salmon calcitonin standard
Method: Rats were divided into four groups of seven animals, and each group was assigned at random to a dose of standard or test solution. Low and high doses were chosen from the linear portion of the dose-response curve. For the salmon calcitonin standard, the values were 0.7 and 2.1 ng. peptide/100 g. body weight (BW). This dose approximates 3 and 9 MU/100 g. BW. Peptides were given by subcutaneous injection (0.2 ml/100 g. BW) and blood was withdrawn 1 hour later for serum calcium determination. Sera are processed and analyzed within two hours of collection. Results were analyzed within two hours of collection. Results were analyzed by a 2×2 parallel line assay [Gaddum, J. H., J. Pharm.

[2] = system: serum calcium concentration; conditions: standard salmon calcitonin used in the assay; cited from earlier work

Row | Substance | biological potency [1] [IU/mg] | biological potency of the standard, independently determined [2]
1 | [Des-1-Amino, 8-Glycine]salmon calcitonin [[Des-1-Amino, Gly^8]SCT] | 4750 | 
2 | Salmon calcitonin [standard salmon calcitonin] |  | greater than 4,000 IU/mg
